Target: Collagenase 3 (Homo sapiens, UniProt P45452)
Assay: inhibition of collagenase 3 (MMP13) activity – biochemical, autofluorescent compounds, fluorescence, dose response (AID 769)

| Compound | IC50 [µM] |
| --- | --- |
| Oc1ccc(/N=C/c2ccc(-c3cccs3)s2)cc1 [4-[(5-thiophen-2-yl-2-thiophenyl)methylideneamino]phenol] | 1.68 |
| Fc1cccc2sc(Nc3nnc(-c4ccccc4)o3)nc12 [(4-fluoro-1,3-benzothiazol-2-yl)-(5-phenyl-1,3,4-oxadiazol-2-yl)amine] | > 39.8 |
| CCOC(=O)CSc1nc(-c2ccc3c(c2)OCO3)ccc1C#N [2-[[6-(1,3-benzodioxol-5-yl)-3-cyano-2-pyridinyl]thio]acetic acid ethyl ester] | > 39.8 |
| O=S(=O)(Nc1ccc(-c2nc3cccnc3s2)cc1)c1cccs1 | > 39.8 |
| COc1ccc(-c2ccc(-c3noc(-c4ccccc4C)n3)c(OC)n2)cc1 [3-(2-methoxy-6-(4-methoxyphenyl)pyridin-3-yl)-5-o-tolyl-1,2,4-oxadiazole] | 3.97 |
| COc1cc(OC)cc(-c2nnc(Nc3nc4c(F)cccc4s3)o2)c1 [5-(3,5-dimethoxyphenyl)-N-(4-fluorobenzo[d]thiazol-2-yl)-1,3,4-oxadiazol-2-amine] | 3.52 |

The remaining lines, values ahead:

| IC50 [µM] | Compound |
| --- | --- |
| > 39.8 | COc1cccc(-c2nnc(Nc3nc4c(F)cccc4s3)o2)c1 [(4-fluoro-1,3-benzothiazol-2-yl)-[5-(3-methoxyphenyl)-1,3,4-oxadiazol-2-yl]amine] |
| 0.883 | Cc1nn(-c2ccccc2)c2sc(-c3nnc(S)o3)cc12 [MLS000043319] |
